Measured values as given in article PMC7555119, “Characterization of Novel Synthetic Polyphenols: Validation of Antioxidant and Vasculoprotective Activities” (Antioxidants, 2020).
Values after ≈ are worked out from the molar mass of the structure shown.

tested on: not listed separately; experiment: Oxygen radical absorbance capacity (ORAC) assay; settings: not given
Description: The ORAC assay was performed following Ou et al., as modified by Garcés-Rimón et al.. All samples and reagents were dissolved in phosphate buffer (75 mM; pH 7.4). […] The fluorescence was recorded at 40 °C every 55 s for 95 min using a fluorimeter (SpectraMax M2; Molecular Devices, California, USA), with excitation and emission wavelengths of 480 and 520 nm, respectively. All samples were tested in triplicate. ORAC values were expressed as μmol of Trolox equivalents (TE)/μmol of pure compound.

Compound	ORAC
O=C(Nc1ccc(O)cc1)Nc1ccc(O)cc1 [Compound 15, N,N′-bis(4-Hydroxyphenyl)urea]	8.9 ± 0.4 µmol of trolox/µmol of pure compound
O=C(Cc1ccc(O)cc1O)Nc1cc(O)ccc1O [Compound 2, 2-(2′,4′-Dihydroxyphenyl)-N-(2,5-dihydroxyphenyl)acetamide]	8.1 ± 0.1 µmol of trolox/µmol of pure compound
O=C(Nc1ccc(O)c(O)c1)Nc1cc(O)ccc1O [Compound 13, N-(2,5-Dihydroxyphenyl)-N′-(3′,4′-dihydroxyphenyl)urea]	7.8 ± 0.3 µmol of trolox/µmol of pure compound
O=c1c(O)c(-c2ccc(O)c(O)c2)oc2cc(O)cc(O)c12 [Quercetin, reference compound]	6.61 ± 0.27 µmol of trolox/µmol of pure co
O=C(Nc1ccc(O)cc1)Nc1cc(O)ccc1O [Compound 12, N-(2,5-Dihydroxyphenyl)-N′-(4′-hydroxyphenyl)urea]	12.5 ± 0.7 µmol of trolox/µmol of pure compound
Oc1cc(O)c2c(c1)O[C@H](c1ccc(O)c(O)c1)[C@H](O)C2 [(-)-Epicatechin, reference compound]	10.03 ± 5.92 µmol of trolox/µmol of pure co
O=C(Cc1cc(O)ccc1O)Nc1ccc(O)cc1O [Compound 1, N-(2,4-Dihydroxyphenyl)-2-(2′,5′-dihydroxyphenyl)acetamide]	11.0 ± 0.4 µmol of trolox/µmol of pure compound
O=C(Nc1cc(O)ccc1O)Nc1cc(O)ccc1O [Compound 16, N,N′-bis(2,5-Dihydroxyphenyl)urea]	11.9 ± 0.4 µmol of trolox/µmol of pure compound
OCCc1ccc(O)c(O)c1 [Hydroxytyrosol, reference compound]	6.33 ± 0.08 µmol of trolox/µmol of pure co
O=C(Cc1cc(O)ccc1O)N(c1ccc(O)cc1)c1ccc(O)cc1 [Compound 9, 2-(2′,5′-Dihydroxyphenyl)-N,N-bis(4-hydroxyphenyl)acetamide]	29.5 ± 0.5 µmol of trolox/µmol of pure compound
O=C(Cc1cc(O)ccc1O)Nc1ccc(O)c(O)c1 [Compound 6, 2-(2′,5′-Dihydroxyphenyl)-N-(3,4-dihydroxyphenyl)acetamide]	9.4 ± 0.4 µmol of trolox/µmol of pure compound
O=C(Nc1ccc(O)cc1O)Nc1cc(O)ccc1O [Compound 11, N-(2,4-Dihydroxyphenyl)-N′-(2′,5′-dihydroxyphenyl)urea]	6.6 ± 0.1 µmol of trolox/µmol of pure compound
O=C(Cc1cc(O)ccc1O)N(Cc1cc(O)ccc1O)c1ccc(O)cc1 [Compound 10, N-(2′,5′-Dihydroxybenzyl)-2-(2″,5″-dihydroxyphenyl)-N-(4-hydroxyphenyl) acetamide]	27.6 ± 0.5 µmol of trolox/µmol of pure compound
O=C(Cc1ccc(O)cc1O)Nc1ccc(O)cc1O [Compound 5, N-(2,4-Dihydroxyphenyl)-2-(2′,4′-dihydroxyphenyl)acetamide]	5.2 ± 0.4 µmol of trolox/µmol of pure compound
O=C(Nc1cc(O)ccc1O)N(Cc1cc(O)ccc1O)c1ccc(O)cc1 [Compound 18, N-(2′,5′-Dihydroxybenzyl)-N′-(2″,5″-dihydroxiphenyl)-N-(4-hydroxyphenyl)urea]	15.3 ± 0.7 µmol of trolox/µmol of pure compound
O=C(Nc1ccc(O)cc1)Nc1ccc(O)c(O)c1 [Compound 14, N-(3,4-Dihydroxyphenyl)-N′-(4′-hydroxyphenyl)urea]	9.6 ± 0.1 µmol of trolox/µmol of pure compound
O=C(Cc1cc(O)ccc1O)Nc1cc(O)ccc1O [Compound 4, N-(2,5-Dihydroxyphenyl)-2-(2′,5′-dihydroxyphenyl)acetamide]	14.4 ± 0.2 µmol of trolox/µmol of pure compound
Oc1cc(O)c2c(c1)OC(c1ccc(O)c(O)c1)C(O)C2 [D-Catechin, reference compound]	8.59 ± 0.84 µmol of trolox/µmol of pure co

same assay, conditions: TE: Trolox Equivalents

Compound	ORAC
O=C(Cc1cc(O)ccc1O)N(c1ccc(O)cc1)c1ccc(O)cc1 [Compound 9, 2-(2′,5′-Dihydroxyphenyl)-N,N-bis(4-hydroxyphenyl)acetamide]	above 25 TE
O=C(Cc1cc(O)ccc1O)N(Cc1cc(O)ccc1O)c1ccc(O)cc1 [Compound 10, N-(2′,5′-Dihydroxybenzyl)-2-(2″,5″-dihydroxyphenyl)-N-(4-hydroxyphenyl) acetamide]	above 25 TE

tested on: not listed separately; experiment: Aqueous thermodynamic solubility in H2O (UV); format: physicochemical; settings: water, thermodynamic from solid
Text: 4) Log P and aqueous solubility of selected compounds.
Table S2. Theoretical Log P values and aqueous thermodynamic solubility measured for
Comp `Chemical Structure MW LogP Calc Aqueous Solubility a
a Thermodynamic solubility in H 2O (UV). […]

Compound	solubility
O=C(Nc1ccc(O)cc1)Nc1ccc(O)cc1 [Compound 15, N,N′-bis(4-Hydroxyphenyl)urea]	62.6 ± 0.1 µg/mL (≈ 256 µM)

tested on: not given; experiment: not given; settings: not given

Compound	melting point
O=C(Nc1ccc(O)cc1)Nc1ccc(O)cc1 [Compound 15, N,N′-bis(4-Hydroxyphenyl)urea]	245 °C
O=C(Nc1ccc(O)c(O)c1)Nc1cc(O)ccc1O [Compound 13, N-(2,5-Dihydroxyphenyl)-N′-(3′,4′-dihydroxyphenyl)urea]	141 to 143 °C
O=C(Nc1ccc(O)cc1)Nc1cc(O)ccc1O [Compound 12, N-(2,5-Dihydroxyphenyl)-N′-(4′-hydroxyphenyl)urea]	180 to 182 °C
O=C(Cc1cc(O)ccc1O)Nc1ccc(O)cc1O [Compound 1, N-(2,4-Dihydroxyphenyl)-2-(2′,5′-dihydroxyphenyl)acetamide]	178 to 180 °C
O=C(Nc1cc(O)ccc1O)Nc1cc(O)ccc1O [Compound 16, N,N′-bis(2,5-Dihydroxyphenyl)urea]	109 °C (dec.)
O=C(Cc1cc(O)ccc1O)N(c1ccc(O)cc1)c1ccc(O)cc1 [Compound 9, 2-(2′,5′-Dihydroxyphenyl)-N,N-bis(4-hydroxyphenyl)acetamide]	124 to 126 °C
O=C(Cc1cc(O)ccc1O)Nc1ccc(O)c(O)c1 [Compound 6, 2-(2′,5′-Dihydroxyphenyl)-N-(3,4-dihydroxyphenyl)acetamide]	180 °C (dec.)
O=C(Nc1ccc(O)cc1O)Nc1cc(O)ccc1O [Compound 11, N-(2,4-Dihydroxyphenyl)-N′-(2′,5′-dihydroxyphenyl)urea]	> 155 °C (dec.)
O=C(Cc1cc(O)ccc1O)N(Cc1cc(O)ccc1O)c1ccc(O)cc1 [Compound 10, N-(2′,5′-Dihydroxybenzyl)-2-(2″,5″-dihydroxyphenyl)-N-(4-hydroxyphenyl) acetamide]	114 to 116 °C
O=C(Cc1ccc(O)cc1O)Nc1ccc(O)cc1O [Compound 5, N-(2,4-Dihydroxyphenyl)-2-(2′,4′-dihydroxyphenyl)acetamide]	75 to 78 °C
O=C(Nc1cc(O)ccc1O)N(Cc1cc(O)ccc1O)c1ccc(O)cc1 [Compound 18, N-(2′,5′-Dihydroxybenzyl)-N′-(2″,5″-dihydroxiphenyl)-N-(4-hydroxyphenyl)urea]	114 to 115 °C
O=C(Nc1ccc(O)cc1)Nc1ccc(O)c(O)c1 [Compound 14, N-(3,4-Dihydroxyphenyl)-N′-(4′-hydroxyphenyl)urea]	184 to 187 °C
O=C(Cc1cc(O)ccc1O)Nc1cc(O)ccc1O [Compound 4, N-(2,5-Dihydroxyphenyl)-2-(2′,5′-dihydroxyphenyl)acetamide]	204 to 207 °C (dec.)

tested on: not listed separately; experiment: ABTS radical cation scavenging assay; settings: not given
Description: The 2,2′-azino-bis (3-ethylbenzothiazoline-6-sulfonic acid) diammonium salt (ABTS) assay was performed according to Re et al. and modified by Oki et al. for its use in microplates. Samples were diluted in methanol. An ABTS^•+ stock solution was prepared by adding 44 μL of potassium persulfate (140 mmol/L) to a 2.5 mL ABTS^•+ aqueous solution (7 mmol/L). The working solution of the radical ABTS^+ was prepared by diluting the stock solution 1:75 (v/v) in a sodium phosphate buffer (5 mmol/L, pH 7.4) to obtain an absorbance value of 0.7±0.02 at 734 nm. Samples (30 μL) were added to 270 μL of the working solution of ABTS^•+ in a microplate. Absorbance was measured at 734 nm and 30 °C for 20 min, every 5 min in a Synergy HT plate spectrophotometer (Biotek Instruments, Winoosky, VT, USA). A calibration curve was made with Trolox (20–250 μM). All samples were analyzed in triplicate. Results were expressed in μmol TE/μmol of pure compound, as for the ORAC assays.

Compound	ABTS
O=C(Nc1ccc(O)cc1)Nc1ccc(O)cc1 [Compound 15, N,N′-bis(4-Hydroxyphenyl)urea]	1.17 ± 0.01 µmol of trolox/µmol of pure compound
O=c1c(O)c(-c2ccc(O)c(O)c2)oc2cc(O)cc(O)c12 [Quercetin, reference compound]	5.28 ± 0.29 µmol of trolox/µmol of pure co
Oc1cc(O)c2c(c1)O[C@H](c1ccc(O)c(O)c1)[C@H](O)C2 [(-)-Epicatechin, reference compound]	5.90 ± 0.73 µmol of trolox/µmol of pure co
OCCc1ccc(O)c(O)c1 [Hydroxytyrosol, reference compound]	0.97 ± 0.05 µmol of trolox/µmol of pure co
Oc1cc(O)c2c(c1)OC(c1ccc(O)c(O)c1)C(O)C2 [D-Catechin, reference compound]	3.17 ± 1.22 µmol of trolox/µmol of pure co

tested on: not listed separately; experiment: Stability in aqueous media (H2O/acetonitrile 80:20, HPLC-MS); format: physicochemical; settings: H2O/acetonitrile (80:20%), room temperature, checked for 60 days
Text: The solutions were checked by HPLC-MS at regular intervals of time for 60 days. […] The rest of the compounds suffered progressive degradation, with complete disappearance from the solution after 10 or 20 days. The most unstable polyphenol derivatives were 4 and 10 (Figure S1), having both two p-dihydroxy substitutions in the phenyl rings, which points to the rapid and easy oxidation to the p-hydroquinone. From the four compounds with three phenyl rings, only one was stable in aqueous solution (17).

Compound	stability in aqueous media
O=C(Nc1ccc(O)cc1)Nc1ccc(O)cc1 [Compound 15, N,N′-bis(4-Hydroxyphenyl)urea]	sufficiently stable
O=C(Cc1cc(O)ccc1O)N(Cc1cc(O)ccc1O)c1ccc(O)cc1 [Compound 10, N-(2′,5′-Dihydroxybenzyl)-2-(2″,5″-dihydroxyphenyl)-N-(4-hydroxyphenyl) acetamide]	most unstable
O=C(Cc1cc(O)ccc1O)Nc1cc(O)ccc1O [Compound 4, N-(2,5-Dihydroxyphenyl)-2-(2′,5′-dihydroxyphenyl)acetamide]	most unstable

same assay, conditions: remaining pure compound (HPLC) after two months at room temperature in aqueous solution (+20% acetonitrile)

Compound	Aqueous Stability (%)
O=C(Nc1ccc(O)cc1)Nc1ccc(O)cc1 [Compound 15, N,N′-bis(4-Hydroxyphenyl)urea]	90%
O=C(Nc1ccc(O)cc1)Nc1cc(O)ccc1O [Compound 12, N-(2,5-Dihydroxyphenyl)-N′-(4′-hydroxyphenyl)urea]	0%
O=C(Cc1cc(O)ccc1O)Nc1ccc(O)cc1O [Compound 1, N-(2,4-Dihydroxyphenyl)-2-(2′,5′-dihydroxyphenyl)acetamide]	2%
O=C(Nc1cc(O)ccc1O)Nc1cc(O)ccc1O [Compound 16, N,N′-bis(2,5-Dihydroxyphenyl)urea]	0%
O=C(Cc1cc(O)ccc1O)N(c1ccc(O)cc1)c1ccc(O)cc1 [Compound 9, 2-(2′,5′-Dihydroxyphenyl)-N,N-bis(4-hydroxyphenyl)acetamide]	0%
O=C(Cc1cc(O)ccc1O)Nc1ccc(O)c(O)c1 [Compound 6, 2-(2′,5′-Dihydroxyphenyl)-N-(3,4-dihydroxyphenyl)acetamide]	0%
O=C(Cc1cc(O)ccc1O)N(Cc1cc(O)ccc1O)c1ccc(O)cc1 [Compound 10, N-(2′,5′-Dihydroxybenzyl)-2-(2″,5″-dihydroxyphenyl)-N-(4-hydroxyphenyl) acetamide]	0%
O=C(Nc1cc(O)ccc1O)N(Cc1cc(O)ccc1O)c1ccc(O)cc1 [Compound 18, N-(2′,5′-Dihydroxybenzyl)-N′-(2″,5″-dihydroxiphenyl)-N-(4-hydroxyphenyl)urea]	0%
O=C(Nc1ccc(O)cc1)Nc1ccc(O)c(O)c1 [Compound 14, N-(3,4-Dihydroxyphenyl)-N′-(4′-hydroxyphenyl)urea]	0%
O=C(Cc1cc(O)ccc1O)Nc1cc(O)ccc1O [Compound 4, N-(2,5-Dihydroxyphenyl)-2-(2′,5′-dihydroxyphenyl)acetamide]	0%

tested on: Saccharomyces cerevisiae strain BY4741; experiment: In vivo antioxidant capacity in stressed yeasts (growth recovery, survivors); format: cell-based; settings: H2O2-stressed BY4741, doses 2, 20 and 40 μg
Description: Saccharomyces cerevisiae haploid strain BY4741 was used as described previously. Briefly, 20 μL of glycerol stock culture was revived in 5ml of YPD medium (1% yeast extract, 2% bacteriological peptone and 2% dextrose) at 28 °C, with shaking (210 rpm). Fifty microliters of 20-h-old culture was used to inoculate fresh 5ml YPD (control medium) or 5 mL of oxidative stress medium (YPOxD: YPOxD; 1% yeast extract, 2% bacteriological peptone, 1% dextrose and 3% H2O2). Stress (and control) was conducted during 16h at 28 °C, with shaking (220 rpm).
Growth rate was determined from growth kinetics using the BioScreen C plate-reader system (OY Growth Curves Ab Ldt., Helsinki, Finland). Stressed yeast cultures (16 h old) were used to inoculate 200 µl of fresh media to an initial OD595 of 0.05–0.07, being distributed in 100-well honeycomb plates (Oy Growth Curves) in triplicate per each condition (each different dose of each compound). Plates were then incubated at 28 °C for 72h, with shaking (High force), taking OD measurement each 15 min in the Bioscreen C. Maximum growth rate (μmax) and biomass production (carrying capacity) were determined in R using ‘Growthcurver’ package version 0.3 [24]. Growth curves were constructed in EXCEL, represented as mean ± SEM (standard error of mean). […] In addition, to measure survival after oxidative stress and antioxidant effectiveness of each compound, yeast cells from each challenge were serially diluted in 96-well plates, and each dilution was spotted (with a 8 × 6 stainless steel replica platter from SIGMA) in triplicate to determine viable colonies after 24–48 h at 28 °C. Survivors (mean ± SEM) were compared between treatments with one-way ANOVA, Fisher’s LSD test, with alpha at 0.05 for significance.

Compound	growth rate (r) recovery of stressed yeast
O=C(Nc1ccc(O)cc1)Nc1ccc(O)cc1 [Compound 15, N,N′-bis(4-Hydroxyphenyl)urea]	dose-related antioxidant effect

same assay, conditions: H2O2-stressed BY4741, each dose tested

Compound	carrying capacity (k) recovery of stressed yeast
O=C(Nc1ccc(O)cc1)Nc1ccc(O)cc1 [Compound 15, N,N′-bis(4-Hydroxyphenyl)urea]	able to recover the carrying capacity of yeast cells similarly as control antioxidants

same assay, conditions: low 2 μg dose

Compound	carrying capacity (k) recovery of stressed yeast, 2 μg dose
O=C(Nc1ccc(O)cc1)Nc1ccc(O)cc1 [Compound 15, N,N′-bis(4-Hydroxyphenyl)urea]	slightly better than the other two polyphenols and resveratrol
